This is an account of results in patent publication US20070128217A1 (priority 2003, published 2007).

For test [1], the system named is antibodies in sera from SARS patients (sera 1a, 1b, 2, 6, 37, 62, London, SARS-yellow, SARS-green). The test is classed as binding, human. The arrangement: Binding of serum 6 to linear peptides of protein X1 of SARS-CoV Urbani / Binding of serum 37 to linear peptides of protein X1 of SARS-CoV Urbani / Binding of serum 6 to looped/cyclic peptide (PEPSCAN-ELISA) / Binding of serum 37 to looped/cyclic peptide (PEPSCAN-ELISA) / Binding of serum 37 to looped/cyclic peptides of protein X1 of SARS-CoV Urbani / Binding of serum 6 to linear peptides of protein X2 / Binding of serum 37 to linear peptides of protein X2 / Binding of serum 37 to looped/cyclic peptides of protein X2 of SARS-CoV Urbani / Binding of serum 6 to linear peptides of protein M of SARS-CoV Urbani / Binding of serum 37 to linear peptides of protein M of SARS-CoV Urbani / Binding of serum 6 to looped/cyclic peptides of protein M of SARS-CoV Urbani / Binding of serum 37 to looped/cyclic peptides of protein M of SARS-CoV Urbani / Binding of serum 6 to linear peptides of protein X3 of SARS-CoV Urbani / Binding of serum 37 to linear peptides of protein X3 of SARS-CoV Urbani / Binding of serum 37 to looped/cyclic peptides of protein X3 of SARS-CoV Urbani / Binding of serum 6 to linear peptides of protein X4 of SARS-CoV Urbani / Binding of serum 37 to linear peptides of protein X4 of SARS-CoV Urbani / Binding of serum 37 to looped/cyclic peptides of protein X4 of SARS-CoV Urbani / Binding of serum 6 to linear peptides of protein X5 of SARS-CoV Urbani / Binding of serum 37 to linear peptides of protein X5 of SARS-CoV Urbani / Binding of serum 37 to looped/cyclic peptides of protein X5 of SARS-CoV Urbani / Binding of serum 6 to linear peptides of protein N of SARS-CoV Urbani / Binding of serum 37 to linear peptides of protein N of SARS-CoV Urbani / Binding of serum 6 to linear peptide (PEPSCAN-ELISA) / Binding of serum 1a to looped/cyclic peptides of protein N of SARS-CoV Urbani / Binding of serum 1b to looped/cyclic peptides of protein N of SARS-CoV Urbani / Binding of serum 2 to looped/cyclic peptides of protein N of SARS-CoV Urbani / Binding of serum 6 to looped/cyclic peptides of protein N of SARS-CoV Urbani / Binding of serum 37 to looped/cyclic peptides of protein N of SARS-CoV Urbani / Binding of serum 62 to looped/cyclic peptides of protein N of SARS-CoV Urbani / Binding of serum London to looped/cyclic peptides of protein N of SARS-CoV Urbani / Binding of serum SARS-green to looped/cyclic peptides of protein N of SARS-CoV Urbani: unit not given here.

The subject of test [2] is control sera (pooled serum of ten healthy LUMC hospital workers; commercial negative donor pooled serum from the Dutch bloodbank). The test is classed as binding, human. The arrangement: Binding of Control serum LUMC to linear peptides / Binding of Control serum Blood-bank to linear peptides / Binding of Control serum LUMC to looped peptides / Binding of Control Serum Blood-Bank to Looped peptides / Binding of Control serum LUMC to linear peptides of the protein M of SARS-CoV Urbani / Binding of Control serum Blood-bank to linear peptides of the protein M of SARS-CoV Urbani / Binding of Control serum LUMC to looped peptides of the protein M of SARS-CoV Urbani / Binding of Control Serum Blood-Bank to Looped peptides of the protein M of SARS-CoV Urbani: unit not given here.

The test system of test [3] is rabbit serum obtained by immunizing a rabbit with the SARS-CoV strain Frankfurt 1. The format is binding. Set-up: Binding of a rabbit serum to linear peptides / Binding of a rabbit serum to looped peptides / Rabbit serum linear peptides / Rabbit serum looped peptides / Binding of a rabbit serum to linear peptides of protein N of SARS-CoV Urbani (Rabbit serum linear peptides) / Binding of a rabbit serum to looped/cyclic peptides of protein N of SARS-CoV Urbani (Rabbit serum looped peptides): unit not given here.

Take AYNRYRIGNYKLNTD: in test [1], the “Binding of serum 1a to linear peptides of protein M of SARS-CoV Urbani” value is recorded as 0.7, the “Binding of serum 1a to looped/cyclic peptides of protein M of SARS-CoV Urbani” value turned out to be 0.8, the “Binding of serum 1b to linear peptides of protein M of SARS-CoV Urbani” value was determined as 0.2 and the “Binding of serum 1b to looped/cyclic peptides of protein M of SARS-CoV Urbani” value came to 0.7. Also, in test [1], the “Binding of serum 2 to linear peptides of protein M of SARS-CoV Urbani” value came out at 0.3, the “Binding of serum 2 to looped/cyclic peptides of protein M of SARS-CoV Urbani” value is 0.5, the “Binding of serum 6 to linear peptides of protein M of SARS-CoV Urbani” value stood at 0.4 and the “Binding of serum 6 to looped/cyclic peptides of protein M of SARS-CoV Urbani” value is 1.0. Moreover, in test [1], the “Binding of serum 37 to linear peptides of protein M of SARS-CoV Urbani” value was 0.5, the “Binding of serum 37 to looped/cyclic peptides of protein M of SARS-CoV Urbani” value was 0.6, the “Binding of serum 62 to linear peptides of protein M of SARS-CoV Urbani” value turned out to be 0.7 and the “Binding of serum 62 to looped/cyclic peptides of protein M of SARS-CoV Urbani” value is listed as 0.6. In test [1], the “Binding of serum London to linear peptides of protein M of SARS-CoV Urbani” value is given as 0.5, the “Binding of serum London to looped/cyclic peptides of protein M of SARS-CoV Urbani” value came to 0.4, the “Binding of serum SARS-green to linear peptides of protein M of SARS-CoV Urbani” value is 0.2 and the “Binding of serum SARS-green to looped/cyclic peptides of protein M of SARS-CoV Urbani” value was found to be 0.2. In addition, in test [1], the “Binding of serum SARS-yellow to linear peptides of protein M of SARS-CoV Urbani” value turned out to be 0.0 and the “Binding of serum SARS-yellow to looped/cyclic peptides of protein M of SARS-CoV Urbani” value is 0.6. For the same sequence, in test [2], the “Binding of Control Serum Blood-Bank to Looped peptides of the protein M of SARS-CoV Urbani” value amounted to 0.6, the “Binding of Control serum Blood-bank to linear peptides of the protein M of SARS-CoV Urbani” value is on record as 0.6, the “Binding of Control serum LUMC to linear peptides of the protein M of SARS-CoV Urbani” value came out at 0.3 and the “Binding of Control serum LUMC to looped peptides of the protein M of SARS-CoV Urbani” value was determined as 0.7. Further, in test [3], the “Rabbit serum linear peptides” value worked out at 0.3 and the “Rabbit serum looped peptides” value was 0.3.

Turning to AYSNRNRFLYIIKLV, in test [1], the “Binding of serum 1a to linear peptides of protein M of SARS-CoV Urbani” value was 0.7, the “Binding of serum 1b to linear peptides of protein M of SARS-CoV Urbani” value is reported as 0.6, the “Binding of serum 2 to linear peptides of protein M of SARS-CoV Urbani” value is given as 0.6 and the “Binding of serum 6 to linear peptides of protein M of SARS-CoV Urbani” value came to 0.6. For the same sequence, in test [1], the “Binding of serum 37 to linear peptides of protein M of SARS-CoV Urbani” value was found to be 0.4, the “Binding of serum 62 to linear peptides of protein M of SARS-CoV Urbani” value is 0.5, the “Binding of serum London to linear peptides of protein M of SARS-CoV Urbani” value worked out at 0.3 and the “Binding of serum SARS-green to linear peptides of protein M of SARS-CoV Urbani” value was 0.5. For the same sequence, in test [1], the “Binding of serum SARS-yellow to linear peptides of protein M of SARS-CoV Urbani” value came out at 0.2; the “Recognition of the peptide by sera of SARS-CoV infected individuals, and form (linear, looped/cyclic) in which it is recognized” value was “recognized in looped/cyclic form”. Besides, in test [2], the “Binding of Control Serum Blood-Bank to Looped peptides of the protein M of SARS-CoV Urbani” value was 0.6, the “Binding of Control serum Blood-bank to linear peptides of the protein M of SARS-CoV Urbani” value turned out to be 0.7, the “Binding of Control serum LUMC to linear peptides of the protein M of SARS-CoV Urbani” value is 0.7 and the “Binding of Control serum LUMC to looped peptides of the protein M of SARS-CoV Urbani” value is given as 0.8. For the same sequence, in test [3], the “Rabbit serum linear peptides” value amounted to 0.3 and the “Rabbit serum looped peptides” value is 0.5.

Regarding CALGKVLPFHRWHTM, in test [1], the “Binding of serum 1a to linear peptides of protein X5 of SARS-CoV Urbani” value came out at 0.7, the “Binding of serum 1a to looped/cyclic peptides of protein X5 of SARS-CoV Urbani” value came to 0.4, the “Binding of serum 1b to linear peptides of protein X5 of SARS-CoV Urbani” value is recorded as 0.5 and the “Binding of serum 1b to looped/cyclic peptides of protein X5 of SARS-CoV Urbani” value is given as 0.2. For the same sequence, in test [1], the “Binding of serum 2 to linear peptides of protein X5 of SARS-CoV Urbani” value came to 0.7, the “Binding of serum 2 to looped/cyclic peptides of protein X5 of SARS-CoV Urbani” value is on record as 0.6, the “Binding of serum 6 to linear peptides of protein X5 of SARS-CoV Urbani” value is 0.7 and the “Binding of serum 6 to looped/cyclic peptides of protein X5 of SARS-CoV Urbani” value worked out at 0.4. For the same sequence, in test [1], the “Binding of serum 37 to linear peptides of protein X5 of SARS-CoV Urbani” value was 0.8, the “Binding of serum 37 to looped/cyclic peptides of protein X5 of SARS-CoV Urbani” value came out at 0.5, the “Binding of serum 62 to linear peptides of protein X5 of SARS-CoV Urbani” value is reported as 0.7 and the “Binding of serum 62 to looped/cyclic peptides of protein X5 of SARS-CoV Urbani” value turned out to be 0.3. In test [1], the “Binding of serum London to linear peptides of protein X5 of SARS-CoV Urbani” value is 0.7, the “Binding of serum London to looped/cyclic peptides of protein X5 of SARS-CoV Urbani” value is on record as 0.2, the “Binding of serum SARS-green to linear peptides of protein X5 of SARS-CoV Urbani” value is 0.7 and the “Binding of serum SARS-green to looped/cyclic peptides of protein X5 of SARS-CoV Urbani” value came to 0.4. For the same sequence, in test [1], the “Binding of serum SARS-yellow to linear peptides of protein X5 of SARS-CoV Urbani” value worked out at 0.1 and the “Binding of serum SARS-yellow to looped/cyclic peptides of protein X5 of SARS-CoV Urbani” value was found to be 0.4. Moreover, in test [2], the “Binding of Control Serum Blood-Bank to Looped peptides” value was 0.4, the “Binding of Control serum Blood-bank to linear peptides” value came to 0.8, the “Binding of Control serum LUMC to linear peptides” value came to 0.7 and the “Binding of Control serum LUMC to looped peptides” value is on record as 0.6. Further, in test [3], the “Rabbit serum linear peptides” value is given as 0.6 and the “Rabbit serum looped peptides” value came to 1.0.

Regarding CELYHYQECVRGTTV, in test [1], the “Binding of serum 1a to linear peptides of protein X4 of SARS-CoV Urbani” value is recorded as 0.8, the “Binding of serum 1a to looped/cyclic peptides of protein X4 of SARS-CoV Urbani” value was 0.8, the “Binding of serum 1b to linear peptides of protein X4 of SARS-CoV Urbani” value amounted to 0.7 and the “Binding of serum 1b to looped/cyclic peptides of protein X4 of SARS-CoV Urbani” value worked out at 0.4. Moreover, in test [1], the “Binding of serum 2 to linear peptides of protein X4 of SARS-CoV Urbani” value is listed as 0.5, the “Binding of serum 2 to looped/cyclic peptides of protein X4 of SARS-CoV Urbani” value amounted to 0.8, the “Binding of serum 6 to linear peptides of protein X4 of SARS-CoV Urbani” value worked out at 0.6 and the “Binding of serum 6 to looped/cyclic peptides of protein X4 of SARS-CoV Urbani” value was determined as 0.5. For the same sequence, in test [1], the “Binding of serum 37 to linear peptides of protein X4 of SARS-CoV Urbani” value worked out at 0.9, the “Binding of serum 37 to looped/cyclic peptides of protein X4 of SARS-CoV Urbani” value is 0.8, the “Binding of serum 62 to linear peptides of protein X4 of SARS-CoV Urbani” value was 0.8 and the “Binding of serum 62 to looped/cyclic peptides of protein X4 of SARS-CoV Urbani” value came to 0.6. Further, in test [1], the “Binding of serum London to linear peptides of protein X4 of SARS-CoV Urbani” value was found to be 0.9, the “Binding of serum London to looped/cyclic peptides of protein X4 of SARS-CoV Urbani” value was 0.3, the “Binding of serum SARS-green to linear peptides of protein X4 of SARS-CoV Urbani” value came out at 0.7 and the “Binding of serum SARS-green to looped/cyclic peptides of protein X4 of SARS-CoV Urbani” value was found to be 0.2. In test [1], the “Binding of serum SARS-yellow to linear peptides of protein X4 of SARS-CoV Urbani” value is 0.6 and the “Binding of serum SARS-yellow to looped/cyclic peptides of protein X4 of SARS-CoV Urbani” value worked out at 0.4. Besides, in test [2], the “Binding of Control Serum Blood-Bank to Looped peptides” value was 0.5, the “Binding of Control serum Blood-bank to linear peptides” value was 0.5, the “Binding of Control serum LUMC to linear peptides” value was found to be 0.5 and the “Binding of Control serum LUMC to looped peptides” value was determined as 0.6. For the same sequence, in test [3], the “Rabbit serum linear peptides” value amounted to 0.4 and the “Rabbit serum looped peptides” value was found to be 0.2.
